Reference: patent publication US20230287510A1, “COMPOSITIONS, PANELS, AND METHODS FOR CHARACTERIZING CHRONIC LYMPHOCYTIC LEUKEMIA” (The Broad Institute, Inc., priority 2020, published 2023)

System: chronic lymphocytic leukemia (CLL) samples classified by expression subtype (Ec-i, EC-m1, EC-m2, EC-m3, EC-m4, EC-o, EC-u1, EC-u2)
Experiment: Ex-vivo drug sensitivity (percent viability) of CLL samples compared between expression subtypes (ECs); for Mean viability in the EC: test concentration or dose not given here; for Mean viability in the other ECs: test concentration or dose not given here
Type: cell-based
Excerpt: An analysis was completed to determine whether the expression clusters (ECs) can be used to predict the resistance and sensitivity of different chronic lymphocytic leukemias to various drugs. […] The expression subtypes were then used with the drug sensitivity data to compare the percent […] of samples in each expression cluster to the percent viability of samples in all other expression clusters.

Row | SMILES | Mean viability in the other ECs (all ECs other than EC-m1) | Mean viability in the other ECs (all ECs other than EC-m3) | Mean viability in the other ECs (all ECs other than EC-m4) | Mean viability in the other ECs (all ECs other than EC-u1) | Mean viability in the other ECs (all ECs other than EC-u2) | Drug response associated with the EC (expression cluster EC-m1) | Mean viability in the EC (expression cluster EC-m1) | Drug response associated with the EC (expression cluster EC-m3) | Mean viability in the EC (expression cluster EC-m3) | Drug response associated with the EC (expression cluster EC-m4) | Mean viability in the EC (expression cluster EC-m4) | Drug response associated with the EC (expression cluster EC-u1) | Mean viability in the EC (expression cluster EC-u1) | Drug response associated with the EC (expression cluster EC-u2) | Mean viability in the EC (expression cluster EC-u2) | Drug response associated with the EC (expression cluster EC-i)
1 | CC(C)c1cc(C(=O)N2Cc3ccc(CN4CCN(C)CC4)cc3C2)c(O)cc1O [AT13387] | 0.72 | 0.72 | 0.70 | 0.75 | 0.74 | Resistant | 0.82 | Resistant | 0.81 | Resistant | 0.81 | Sensitive | 0.68 | Sensitive | 0.50 | –
2 | NC(=O)Nc1cc(-c2cccc(F)c2)sc1C(=O)N[C@H]1CCCNC1 [AZD7762] | – | 0.82 | 0.80 | 0.88 | 0.85 | – | – | Resistant | 0.95 | Resistant | 0.98 | Sensitive | 0.74 | Sensitive | 0.51 | –
3 | CC(C)(C)c1ccc(S(=O)(=O)/C=C/C#N)cc1 [BAY 11-7085] | – | – | – | – | – | – | – | – | – | – | – | Sensitive | – | – | – | Resistant
4 | O=C(Nc1cccc(Nc2ncc(Br)c(NCCc3cnc[nH]3)n2)c1)N1CCCC1 [BX912] | – | – | – | 1.07 | – | – | – | – | – | – | – | Sensitive | 1.05 | – | – | –
5 | COc1cc2nc(-c3cc(F)ccc3O)nc(N[C@@H]3CNC[C@H]3C(C)(C)O)c2cc1OC [CCT241533] | 1.06 | 1.06 | – | – | – | Resistant | 1.11 | Resistant | 1.09 | – | – | – | – | – | – | –
6 | C[C@@H]1CN(CC(=O)Nc2ccc3c(c2)Cc2cccc(-c4cc(=O)cc(N5CCOCC5)o4)c2S3)C[C@H](C)O1 [KU-60019] | – | 0.97 | – | – | 0.97 | – | – | Resistant | 1.00 | – | – | – | – | Sensitive | 0.90 | –
7 | O=C(Cc1ccc(-c2ccc(OCCN3CCOCC3)cc2)cn1)NCc1ccccc1 [KX2-391] | – | – | – | 0.91 | – | – | – | – | – | – | – | Sensitive | 0.86 | – | – | –
8 | C=CCn1c(=O)c2cnc(Nc3ccc(N4CCN(C)CC4)cc3)nc2n1-c1cccc(C(C)(C)O)n1 [MK-1775] | – | 1.00 | – | 1.02 | – | – | – | Resistant | 1.04 | – | – | Sensitive | 0.98 | – | – | –
9 | NC1(c2ccc(-c3nc4ccn5c(=O)[nH]nc5c4cc3-c3ccccc3)cc2)CCC1 [MK-2206] | 1.00 | – | 1.00 | 1.02 | – | Resistant | 1.07 | – | – | Resistant | 1.04 | Sensitive | 0.98 | – | – | –
10 | O=c1cc(N2CCOCC2)oc2c(-c3cccc4c3sc3ccccc34)cccc12 [NU7441] | – | – | – | – | – | – | – | – | – | Resistant | – | – | – | Sensitive | – | –
11 | Cn1cc(-c2[nH]c3cc(NC(=O)[C@H](N)C4CCCCC4)cc4c3c2C=NNC4=O)cn1 [PF 477736] | – | – | – | – | – | Resistant | – | Resistant | – | Resistant | – | Sensitive | – | – | – | –
12 | Cl.NC(=O)c1cnc(N[C@@H]2CCCC[C@@H]2N)nc1Nc1cccc(-n2nccn2)c1 [PRT062607 HCl] | – | – | – | – | – | – | – | Resistant | – | Resistant | – | Sensitive | – | Sensitive | – | Resistant
13 | CN1CCC(CNc2ccc3ncc(-c4cccc(OC(F)(F)F)c4)n3n2)CC1 [SGI-1776] | 1.03 | – | – | 1.04 | – | Resistant | 1.09 | – | – | – | – | Sensitive | 1.01 | – | – | –
